# Reference: patent US20080171768A1, “Pharmaceutical Composition Containing An Anti Parasitic Agent And Active Ingredient Selected From Carveol, Thymol, Eugenol, Borneol, Carvacrol, Alpha-Ionone, Or Beta-Ionone” (ADVANCED SCIENTIFIC DEVELOPMENTS, priority 2005, published 2008)
# Read-outs that look alike come from different tables or passages of the source.
# How the values were obtained:
# [1] = test system: Eimeria acervulina and Eimeria tenella; assay: Treatment of subclinical coccidiosis in broiler chickens (in vivo); set-up: species or system Eimeria acervulina and Eimeria tenella (in chickens); details: infected chickens, 5 days treatment in feed (salinomycin 40 mg/kg feed, carvacrol or thymol 75 mg/kg feed); for Weight gain (grams ± SD) Day 5: day 5, immediately after stopping treatment; for Weight gain (grams ± SD) Day 15: day 15, 10 days after stopping treatment
# Method: These in vivo tests were designed to measure weight gain, consumption index, daily oocyst output and appearance of fecal matter in treated chickens.
# The experiment was carried out on 200 chickens aged 22 days (average weight 620 g) afflicted with subclinical coccidiosis sampled from a group of 10,000 broiler chickens.
# Subclinical coccidiosis was diagnosed on day 20. The mean oocyst output in the experimental animals was 50,000 oocysts/g (OPG).
# The antiparasitic agent used is salinomycin, one of the most widely used antiparasitics for this type of infection. Two antiparasitic pharmaceutical compositions according to the invention were prepared by mixing salinomycin at different concentrations with carvacrol or thymol at a sub-inhibitory concentration of 75 mg/kg of feed.
# Antiparasitic activity was also determined either with salinomycin alone, or with carvacrol alone or thymol alone. Antiparasitic activity was measured according to the conventional criteria for this type of infection: weight gain, consumption index, daily oocyst output and appearance of fecal matter. These criteria were measured on day 5 (immediately after stopping treatment) and on day 15 (10 days after stopping treatment).
# The sample was subdivided into seven groups of […]:
# Group 1: Uninfected, untreated animals (healthy controls). Mean weight on day 22: 750 g.
# Group 2: Infected, untreated animals (affection controls).
# Group 3: Infected animals treated with salinomycin at a dose of 40 mg/kg of feed. Group 4: Infected animals treated with carvacrol 75 mg/kg of feed.
# Group 5: Infected animals treated with thymol 75 mg/kg of feed.
# Group 6: Infected animals treated with salinomycin 40 mg/kg of feed potentiated by carvacrol 75 mg/kg of feed.
# Group 7: Infected animals treated with salinomycin 40 mg/kg of feed potentiated by thymol 75 mg/kg of feed.
# The antiparasitic agents used were mixed with this feed during the five days of treatment. The animals had free access to the feed throughout the experiment.
# [2] = test system: Plasmodium falciparum clones 3d7, HB3, Dd2 and 7G8; assay: In vitro IC50, growth of Plasmodium falciparum clones on human red blood cells (SybrGreen DNA fluorescence); type: cell-based
# Method: The experiment was carried out with four clones (named 3d7, HB3, Dd2 and 7G8) of the malarial agent Plasmodium falciparum, a parasitic disease also known as malaria. These clones are laboratory reference models commonly used to screen drugs for antimalarial activity.
# Plasmodium falciparum was grown on human red blood cells. The test was carried out in 96-well plates in which infected red blood cells (synchronized with sorbitol) were contacted with the different treatments for 72 hours at 37° C. in an incubator with controlled atmosphere (5% CO2, 1% O2, 94% N2). Growth of the pathogen was measured by quantifying fluorescent DNA in the presence of SybrGreen.
# An antiparasitic pharmaceutical composition according to the invention was prepared by mixing artesunate at different concentrations with carvacrol or eugenol at sub-inhibitory concentrations of 0.05 mM and 0.2 mM, respectively. […] This pharmaceutical composition according to the invention was named artesunate P eugenol or artesunate P carvacrol, the letter P signifying potentiation by eugenol or carvacrol.
# In each case, antiparasitic activity was determined either with artesunate alone, or with carvacrol alone, or with eugenol alone, or with the composition of the invention.
# The IC50 was determined with Harald Noedl's HN NonLin V1.051 Beta software based on the fluorescence values.
# The experiment was carried out with the same Plasmodium falciparum clones as in example 2 (3d7, HB3, Dd2 and 7G8), the first two clones (3d7 and HB3) being susceptible and the other two (Dd2 and 7G8) being resistant to chloroquine.
# Chloroquine, one of the most widely used antiparasitic agents, is tested. […] This pharmaceutical composition was named chloroquine P eugenol, the letter P signifying potentiation by eugenol.
# In each case, antiparasitic activity was determined either with chloroquine alone, or with eugenol alone, or with the composition of the invention.
# The IC50 was determined as in example 2.
# The experiment was carried out with the same Plasmodium falciparum clones as in examples 2 and 3 (3d7, HB3, Dd2 and 7G8), the first two clones (3d7 and HB3) being susceptible and the other two (Dd2 and 7G8) being resistant to […].
# Mefloquine, one of the most widely used antiparasitic agents, is tested. […] This pharmaceutical composition according to the invention was named mefloquine P eugenol, the letter P signifying potentiation by eugenol.
# In each case, antiparasitic activity was determined either with mefloquine alone, or with eugenol alone, or with the composition of the invention.
# The IC50 was determined as in examples 2 and 3.
# Plasmodium berghei ANKA = assay: Cerebral malaria model, CBA/J mice infected with Plasmodium berghei ANKA (in vivo)
# Excerpt: Here, the intrinsic antimalarial activity of carvacrol as well as artesunate potentiated by carvacrol was studied in vivo in an animal model of cerebral malaria (neuromalaria). The reference model for this type of infection makes use of CBA/J mice infected with Plasmodium berghei ANKA, an agent that causes cerebral malaria.
# The intraperitoneal route was used for infection and treatment of the mice.
# In this model, the onset of the first clinical signs occurs by day 4 or 5 (D4 or D5) after infection. Animals presenting these signs die in the next two days (D6 and D7).
# The test was carried out on five groups of 10 mice as follows:
# Group 1: Uninfected, untreated controls
# Group 2: Infected mice treated with carvacrol (60 mg/kg of weight) twice a day every 12 hours
# Group 3: Infected mice treated with carvacrol (40 mg/kg of weight) twice a day every 12 hours
# Group 4: Infected mice treated with artesunate (40 mg/kg of weight) once a day
# Group 5: Infected mice treated with artesunate (40 mg/kg of weight) once a day and with carvacrol (40 mg/kg of weight) twice a day.
# Treatment commenced five days after infection (D5) and continued for three days (D5, D6, D7).
# [3] = artesunate 40 mg/kg once a day, intraperitoneal, D5-D7
# [4] = carvacrol 40 mg/kg twice a day (80 mg/kg/24 h), intraperitoneal, D5-D7
# [5] = carvacrol 60 mg/kg twice a day (120 mg/kg/24 h), intraperitoneal, D5-D7
smiles,measurement,setting,value
"CC[C@@H](C(=O)[C@@H](C)[C@@H](O)[C@H](C)[C@@H]1O[C@@H]([C@@H](CC)C(=O)O)CC[C@@H]1C)[C@H]1O[C@]2(C=C[C@@H](O)[C@]3(CC[C@@](C)([C@H]4CC[C@](O)(CC)[C@H](C)O4)O3)O2)[C@H](C)C[C@@H]1C [Salinomycin, salinomycin, reference compound]",Consumption index Day 5,[1],2.2
same,Fecal appearance Day 5,[1],Diarrheal
same,Oocyst output (OPG ± SD) Day 5,[1],"110,000 ± 6700 OPG"
same,Weight gain (grams ± SD) Day 5,[1],182 ± 28 grams
same,Consumption index Day 15,[1],2.9
same,Fecal appearance Day 15,[1],Diarrheal
same,Oocyst output (OPG ± SD) Day 15,[1],"164,000 ± 7200 OPG"
same,Weight gain (grams ± SD) Day 15,[1],835 ± 44 grams
"Cc1ccc(C(C)C)c(O)c1 [Thymol, thymol]",Consumption index Day 5,[1],2.45
same,Fecal appearance Day 5,[1],Diarrheal
same,Oocyst output (OPG ± SD) Day 5,[1],"98,000 ± 4200 OPG"
same,Weight gain (grams ± SD) Day 5,[1],180 ± 52 grams
same,Consumption index Day 15,[1],3.3
same,Fecal appearance Day 15,[1],Diarrheal
same,Oocyst output (OPG ± SD) Day 15,[1],"136,000 ± 6500 OPG"
same,Weight gain (grams ± SD) Day 15,[1],840 ± 45 grams
C[C@H]1[C@H](OC(=O)CCC(=O)O)O[C@@H]2O[C@@]3(C)CC[C@H]4[C@H](C)CC[C@@H]1[C@@]24OO3 [artesunate],IC50,"[2]; Plasmodium falciparum, Erythrocyte, 72 h, read-out: IC50 artesunate alone, Clone 3d7",0.00214 µM
same,IC50,"[2]; Plasmodium falciparum, Erythrocyte, 72 h, read-out: IC50 artesunate alone, Clone 7G8",0.001 µM
same,IC50,"[2]; Plasmodium falciparum, Erythrocyte, 72 h, read-out: IC50 artesunate alone, Clone Dd2",0.00266 µM
same,IC50,"[2]; Plasmodium falciparum, Erythrocyte, 72 h, read-out: IC50 artesunate alone, Clone HB3",0.00228 µM
same,IC50,"[2]; read-out: IC50 artesunate alone, Clone 7G8, 72 hours",0.00125 µM
same,% mortality,Plasmodium berghei ANKA; [3],100%
same,Survival time of animals that died,Plasmodium berghei ANKA; [3],7 days
same,protection of treated animals (in words),Plasmodium berghei ANKA; artesunate alone 40 mg/kg/24 h,does not provide any protection
Cc1ccc(C(C)C)cc1O [carvacrol],Consumption index Day 5,[1],2.4
same,Fecal appearance Day 5,[1],Diarrheal
same,Oocyst output (OPG ± SD) Day 5,[1],"105,000 ± 5900 OPG"
same,Weight gain (grams ± SD) Day 5,[1],176 ± 32 grams
same,Consumption index Day 15,[1],3
same,Fecal appearance Day 15,[1],Diarrheal
same,Oocyst output (OPG ± SD) Day 15,[1],"147,000 ± 4300 OPG"
same,Weight gain (grams ± SD) Day 15,[1],812 ± 51 grams
same,IC50,"[2]; Plasmodium falciparum, Erythrocyte, 72 h, read-out: IC50 carvacrol alone, Clone 3d7",330 µM
same,IC50,"[2]; Plasmodium falciparum, Erythrocyte, 72 h, read-out: IC50 carvacrol alone, Clone 7G8",110 µM
same,IC50,"[2]; Plasmodium falciparum, Erythrocyte, 72 h, read-out: IC50 carvacrol alone, Clone Dd2",160 µM
same,IC50,"[2]; Plasmodium falciparum, Erythrocyte, 72 h, read-out: IC50 carvacrol alone, Clone HB3",220 µM
same,protection of treated animals (in words),Plasmodium berghei ANKA; carvacrol 40 mg/kg twice a day (80 mg/kg/24 h),does not afford any protection
same,% mortality,Plasmodium berghei ANKA; [4],100%
same,Survival time of animals that died,Plasmodium berghei ANKA; [4],7.5 days
same,% survivor at D12,Plasmodium berghei ANKA; [5],80%
same,Survival time of animals that died,Plasmodium berghei ANKA; [5],7.5 days
same,% mortality,"Plasmodium berghei ANKA; carvacrol 60 mg/kg twice a day (120 mg/kg/24 h), intraperitoneal, D5-D7 after infection",20%
CCN(CC)CCCC(C)Nc1ccnc2cc(Cl)ccc12 (stereo not drawn) [chloroquine],IC50,"[2]; Plasmodium falciparum, Erythrocyte, 72 h, read-out: IC50 chloroquine alone, Clone 3d7 (susceptible to chloroquine)",0.0223 µM
same,IC50,"[2]; Plasmodium falciparum, Erythrocyte, 72 h, read-out: IC50 chloroquine alone, Clone 7G8 (resistant to chloroquine)",0.445 µM
same,IC50,"[2]; Plasmodium falciparum, Erythrocyte, 72 h, read-out: IC50 chloroquine alone, Clone Dd2 (resistant to chloroquine)",0.494 µM
same,IC50,"[2]; Plasmodium falciparum, Erythrocyte, 72 h, read-out: IC50 chloroquine alone, Clone HB3 (susceptible to chloroquine)",0.0371 µM
C=CCc1ccc(O)c(OC)c1 [eugenol],IC50,"[2]; Plasmodium falciparum, Erythrocyte, 72 h, read-out: IC50 eugenol alone, Clone 3d7",1250 µM
same,IC50,"[2]; Plasmodium falciparum, Erythrocyte, 72 h, read-out: IC50 eugenol alone, Clone 7G8",400 µM
same,IC50,"[2]; Plasmodium falciparum, Erythrocyte, 72 h, read-out: IC50 eugenol alone, Clone Dd2",660 µM
same,IC50,"[2]; Plasmodium falciparum, Erythrocyte, 72 h, read-out: IC50 eugenol alone, Clone HB3",660 µM
OC(c1cc(C(F)(F)F)nc2c(C(F)(F)F)cccc12)C1CCCCN1 (stereo not drawn) [mefloquine],IC50,"[2]; Plasmodium falciparum, Erythrocyte, 72 h, Clone 3d7 (susceptible to mefloquine), read-out: IC50 mefloquine alone",0.00883 µM
same,IC50,"[2]; Plasmodium falciparum, Erythrocyte, 72 h, Clone 7G8 (resistant to mefloquine), read-out: IC50 mefloquine alone",0.0153 µM
same,IC50,"[2]; Plasmodium falciparum, Erythrocyte, 72 h, Clone Dd2 (resistant to mefloquine), read-out: IC50 mefloquine alone",0.0338 µM
same,IC50,"[2]; Plasmodium falciparum, Erythrocyte, 72 h, Clone HB3 (susceptible to mefloquine), read-out: IC50 mefloquine alone",0.00896 µM
